Measured values reported in paper PMC5291098, “Molecular mutagenesis of ppGpp: turning a RelA activator into an inhibitor” (Scientific Reports, 2017).
Where two headings read alike, the source gives them in different places.

Molecular target: T1, E. coli RelA (Escherichia coli, UniProt P0AG20)
T1 construct: made in house
Test: Inhibition of [3H]GDP to [3H]ppGpp conversion by E. coli RelA activated by vacant 70S ribosomes and 100 μM ppGpp
Type: biochemical
Conditions: for IC50: 30 nM RelA, 0.5 μM vacant 70S, 100 μM ppGpp; for nHill (Hill coefficient of the titration fit): Supplementary Table 1, 4-parameter logistic model; for Activation of RelA's synthetic activity (in words): ppGpp up to 100 μM, ppApp 50 µM-1 mM, thio-ppGpp 100 µM (Supplementary Figure 1); for Activity against RelA (in words) / Inhibitory effect on RelA (in words): RelA:70S:ppGpp system; for Inhibitory effect on RelA (in words): concentrations up to 1 mM
Procedure: For the initial characterization of compounds, we followed the inhibition of [^3H] GDP conversion to [^3H] ppGpp catalyzed by E. coli RelA in a simplified system in which RelA’s activity was induced by vacant 70S ribosomes and 100 μM of ppGpp[15]. Unlabeled ppGpp was added to reaction mixtures in order to linearize the kinetics of [^3H] ppGpp synthesis due to an activating effect on the RelA enzyme. We used a targeted library of 69 nucleotides belonging to several structural classes: ‘true’ ppGpp analogues; Relacin and its derivatives; pyrrolidine, azetidine, piperidine and acyclic phosphonates. Chemical structures of tested compounds and titrations in the RelA:70S:ppGpp system are presented in Supplementary Table 1.
Detailed description of experimental procedures can be found in Supplementary Text. Biochemical assays utilize in vitro translation[58] and stringent response[15] systems from E. coli purified components. Experiments were performed in HEPES:Polymix[58] buffer with either 5 (for enzymatically assembled initiation complexes) or 15 mM (for vacant 70 S, as well as non-enzymatically assembled programmed ribosomes) Mg^2+. Expression and purification of E. faecalis RelQ was performed as per Gaca (2015) and colleagues. GTPase and ppGpp synthesis were followed using TLC separation and radiochemical detection of ^3H-labelled nucleotides. Multiple round in vitro transcription assays were performed as per Bernardo et al.[49] with minor modifications. Inhibition efficiency (IC50) was calculated using 4-parameter logistic model (Hill equation) as per Sebaugh[60].
Thin layer chromatography (TLC) analysis of nucleotide mixtures
Both EF-G GTPase reaction and ppGpp synthesis by RelA were followed by TLC analysis followed by scintillation counting according to Mechold and colleagues, with modifications1. Time points from the reaction mixtures (5 μl, see below for details) were quenched by addition 4 μl 70% formic acid supplemented with a cold nucleotide standard used for UV-shadowing (10 mM GDP and 10 mM GTP) and spotted on PEI-TLC plates (Macherey-Nagel). TLC was run in buffer, plates dried, cut into sections guided by UV-shadowing and 3H radioactivity was quantified by scintillation counting in Optisafe-3 (Fisher) scintillation cocktail on Perkin Elmer Tricarb 2810TR counter. Conversion of substrate to product was quantified as described in Shyp et al. (2012)2.
Enzymatic assays with E. coli RelA
Screening: all experiments were performed in HEPES:Polymix, Mg2+ of 5 mM, 37 […]
μM ppGpp was pre-incubated at 37° C for 2 min and then reaction started by addition of 1 mM ATP, time points (5 μl) taken, quenched with formic acid and analyzed by TLC. Inhibition efficiency (IC50) was calculated using 4-parameter logistic model (Hill equation) as per Sebaugh (2011)3. […]

[1] = 0.3 mM [3H]GDP, 1 mM ATP, read-out: IC50
[2] = 5 mM Mg2+, 37 °C, no unit beside the value, titration axis in mM, read-out: IC50 (Supplementary Table 1, example titration)

T1 sequence (P0AG20 whole entry): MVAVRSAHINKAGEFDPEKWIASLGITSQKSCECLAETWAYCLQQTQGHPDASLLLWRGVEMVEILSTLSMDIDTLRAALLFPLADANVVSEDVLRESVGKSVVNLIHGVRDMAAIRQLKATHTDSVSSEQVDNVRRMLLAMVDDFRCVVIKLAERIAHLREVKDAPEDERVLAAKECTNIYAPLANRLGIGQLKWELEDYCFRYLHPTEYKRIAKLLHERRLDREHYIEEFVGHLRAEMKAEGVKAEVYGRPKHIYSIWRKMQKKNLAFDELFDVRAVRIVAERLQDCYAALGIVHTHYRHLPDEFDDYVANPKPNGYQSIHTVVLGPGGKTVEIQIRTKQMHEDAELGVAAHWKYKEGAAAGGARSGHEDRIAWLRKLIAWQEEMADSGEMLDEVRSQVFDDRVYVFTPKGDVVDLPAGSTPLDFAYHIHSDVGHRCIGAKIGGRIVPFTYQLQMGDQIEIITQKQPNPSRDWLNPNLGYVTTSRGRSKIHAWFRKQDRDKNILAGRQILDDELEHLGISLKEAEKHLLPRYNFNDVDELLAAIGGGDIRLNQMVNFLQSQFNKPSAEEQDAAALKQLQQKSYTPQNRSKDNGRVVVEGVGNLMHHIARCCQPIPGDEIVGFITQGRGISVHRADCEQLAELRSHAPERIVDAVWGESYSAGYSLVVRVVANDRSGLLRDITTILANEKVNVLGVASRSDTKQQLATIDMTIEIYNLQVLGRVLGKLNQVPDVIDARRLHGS

| Structure (SMILES) | IC50 [1] | nHill (Hill coefficient of the titration fit) | further results |
| --- | --- | --- | --- |
| Nc1nc2c(ncn2C2OC(COP(=O)(O)OP(=O)(O)O)C(OP(=O)(O)OP(=O)(O)O)C2O)c(=S)[nH]1 (stereo not shown) [6-thio-ppGpp, reference compound] | 21.3 ± 2.1 µM | 1.86 ± 0.29 | IC50 (5 mM Mg2+, 37 °C, no unit beside the value, titration axis in µM, read-out: IC50 (Supplementary Table 1, example titration)): 21.2 ± 2.08 µM; Activation of RelA's synthetic activity (in words): neither ppApp nor 6-thio-ppGpp activate; Activation of RelA's synthetic activity (in words) (listed as thio-ppGpp): do not activate |
| CC(C)C(=O)Nc1nc2c(ncn2[C@@H]2O[C@H](COP(=O)(O)OCP(=O)(O)O)[C@@H](OP(=O)(O)OCP(=O)(O)O)[C@H]2OC2CCCCO2)c(=O)[nH]1 (stereo partly shown) [DR-4238, 2-N-isobutyryl-2’-tetrahydropyranylguanosine 3’,5’-di(phosphonomethoxyphosphate)] | – | 1.85 ± 0.2 | IC50 [2]: 100 ± 6 µM |
| CC(C)C(=O)Nc1nc2c(ncn2C2OC(COP(=O)(O)OCP(=O)(O)O)C(OP(=O)(O)OCP(=O)(O)O)C2O)c(=O)[nH]1 (stereo not shown) [DR-4239, 2-N-isobutyryl-guanosine 3’,5’-di(phosphonomethoxyphosphate)] | 101 ± 8 µM | 2.13 ± 0.3 | IC50 [2]: 102 ± 8 µM |
| CC(C)OP(=O)(O)CN1CC[C@H](n2cnc3c(=O)[nH]c(N)nc32)C1 [DR-4518] | 1710 ± 660 µM | – | – |
| Nc1nc2c(ncn2[C@H]2CCN(C(=O)P(=O)(O)O)C2)c(=O)[nH]1 [DR-4520] | 200 ± 22 µM | 1.46 ± 0.2 | – |
| Nc1nc2c(ncn2CCNCC(=O)P(=O)(O)O)c(=O)[nH]1 [DR-5164] | 1400 ± 120 µM | – | – |
| Nc1nc2c(ncn2[C@@H]2CCN(C(=O)P(=O)(O)O)C2)c(=O)[nH]1 [DR-5267B] | 652 ± 194 µM | 0.95 ± 0.26 | – |
| Nc1nc2c(ncn2C2CC(OC(=O)NCC(=O)NCC(=O)O)C(COC(=O)NCC(=O)NCC(=O)O)O2)c(=S)[nH]1 (stereo not shown) [DR-5732] | – | – | Activity against RelA (in words): virtually no activity; Activity against RelA (in words) (listed as thio-di-iBu-Relacin): complete inactivation |
| Nc1nc2c(ncn2C2CC(OCP(=O)(O)O)C(COCP(=O)(O)O)O2)c(=O)[nH]1 (stereo not shown) [DR-5799C] | 515 ± 392 µM | 2.2 ± 2.5 | – |
| Nc1ncnc2c1ncn2C1CCN(C(=O)P(=O)(O)O)CC1 [DR-5994A] | – | 1 ± 0.088 | IC50 [2]: 300 ± 30 µM |
| Nc1nc2c(ncn2C2OC(COCP(=O)(O)O)C(OCP(=O)(O)O)C2O)c(=O)[nH]1 (stereo not shown) [DR-6331] | 76 ± 6 µM | 1.5 ± 0.2 | – |
| Nc1nc2c(ncn2C2CCN(C(=O)CP(=O)(O)O)CC2)c(=O)[nH]1 [DR-M011] | 234 ± 67 µM | 0.62 ± 0.13 | IC50 [2]: 230 ± 70 µM |
| NC(=O)C1=CN([C@@H]2O[C@H](COP(=O)(O)OP(=O)(O)OC[C@H]3O[C@@H](n4cnc5c(N)ncnc54)[C@H](O)[C@@H]3O)[C@@H](O)[C@H]2O)C=CC1 [NADH, reference compound] | – | – | Inhibitory effect on RelA (in words): None of the compounds showed any inhibitory effect |
| NC(=O)C1=CN([C@@H]2O[C@H](COP(=O)(O)OP(=O)(O)OC[C@H]3O[C@@H](n4cnc5c(N)ncnc54)[C@H](OP(=O)(O)O)[C@@H]3O)[C@@H](O)[C@H]2O)C=CC1 [NADPH, reference compound] | – | – | Inhibitory effect on RelA (in words): None of the compounds showed any inhibitory effect |
| Nc1ncnc2c1ncn2[C@@H]1O[C@@H]2COP(=O)(O)O[C@H]3[C@@H](O)[C@H](n4cnc5c(N)ncnc54)O[C@@H]3COP(=O)(O)O[C@H]2[C@H]1O [c-di-AMP, reference compound] | – | – | Inhibitory effect on RelA (in words): None of the compounds showed any inhibitory effect |
| Nc1nc2c(ncn2[C@@H]2O[C@@H]3COP(=O)(O)O[C@H]4[C@@H](O)[C@H](n5cnc6c(N)ncnc65)O[C@@H]4COP(=O)(O)O[C@H]3[C@H]2O)c(=O)[nH]1 [c-di-GAMP, reference compound] | – | – | Inhibitory effect on RelA (in words): None of the compounds showed any inhibitory effect |
| Nc1nc2c(ncn2[C@@H]2O[C@@H]3COP(=O)(O)O[C@H]4[C@@H](O)[C@H](n5cnc6c(=O)[nH]c(N)nc65)O[C@@H]4COP(=O)(O)O[C@H]3[C@H]2O)c(=O)[nH]1 [c-di-GMP, reference compound] | – | – | Inhibitory effect on RelA (in words): None of the compounds showed any inhibitory effect |
| Nc1nc2c(ncn2C2CC(OC(=O)NCC(=O)NCC(=O)O)C(COC(=O)NCC(=O)NCC(=O)O)O2)c(=O)[nH]1 (stereo not shown) [di-iBu-Relacin] | – | – | Activity against RelA (in words): compromises its activity against RelA |
| Nc1nc2c(ncn2C2OC(COP(=O)(O)OP(=O)(O)O)C(OP(=O)(O)OP(=O)(O)O)C2O)c(=O)[nH]1 (stereo not shown) [ppGpp, guanosine tetraphosphate] | 720 ± 440 µM | – | – |
